Test results reported in patent US20250382287A1, “PHARMACEUTICALLY ACCEPTABLE SALT AND CRYSTAL FORM OF NITROGEN-CONTAINING BRIDGE HETEROCYCLIC DERIVATIVE, AND METHOD FOR PREPARING SAME” (JIANGSU HENGRUI PHARMACEUTICALS CO., LTD., priority 2022, published 2025).

Assays:
[1] = Long-term/accelerated stability (sealed, 25° C./60% RH and 40° C./75% RH)
[2] = Influencing factor stability (open flasks, light, high temperature, high humidity, 30 days)
[3] = DVS (dynamic vapor sorption) hygroscopicity testing; assay type: physicochemical; conditions: for hygroscopic weight gain under normal storage conditions / hygroscopic weight gain under accelerated experimental conditions / hygroscopic weight gain under extreme conditions: DVS; for hygroscopic weight gain under normal storage conditions: 25° C. and 60% RH; for hygroscopic weight gain under accelerated experimental conditions: 70% RH; for hygroscopic weight gain under extreme conditions: 90% RH; for crystal form re-identification after DVS testing: XRPD after DVS
Method: DVS refers to dynamic vapor sorption: Surface Measurement Systems instrinsic was adopted; the humidity started at 50%, the humidity range investigated was 0%-95%, and the humidity was increased in increments of 10%; the criterion was that each gradient mass change dM/dT is less than 0.002%, TMAX 360 min, two cycles.

[4] = 25° C., 60% RH, sealed, 1 month
[5] = 25° C., 60% RH, sealed, 2 months
[6] = 25° C., 60% RH, sealed, 3 months
[7] = 25° C., 60% RH, sealed, 6 months
[8] = 25° C./60% RH and 40° C./75% RH, 6 months
[9] = 40° C., 75% RH, sealed, 1 month
[10] = 40° C., 75% RH, sealed, 2 months
[11] = 40° C., 75% RH, sealed, 3 months
[12] = 40° C., 75% RH, sealed, 6 months
[13] = Light exposure (4500 Lux), 5 days, open flask
[14] = Light exposure (4500 Lux), 10 days, open flask
[15] = Light exposure (4500 Lux), 30 days, open flask
[16] = light exposure (4500 Lux), 40° C. and 60° C., high humidity RH 75% and 92.5%, 30 days
[17] = Light exposure (4500 Lux), 12 days, open flask

CCO[C@H]1C[C@H]2CC[C@@](c3ccc(C(=O)O)cc3)(C1)N2Cc1c(OC)cc(C)c2[nH]ccc12.O=C(O)/C=C/C(=O)O [crystal form I of the fumarate, 4-((1S,3S,5R)-3-ethoxy-8-((5-methoxy-7-methyl-1H-indol-4-yl)methyl)-8-azabicyclo[3.2.1]octan-1-yl)benzoic acid-fumarate]
Purity % [1, 4]: 99.9%
Salt form [1, 4]: No change
Purity % [1, 5]: 100.0%
Salt form [1, 5]: No change
Purity % [1, 6]: 100.0%
Salt form [1, 6]: No change
Purity % [1, 7]: 99.9%
Salt form [1, 7]: No change
chemical stability [1, 8]: good
physical stability [1, 8]: good
Purity % [1, 9]: 99.9%
Salt form [1, 9]: No change
Purity % [1, 10]: 99.9%
Salt form [1, 10]: No change
Purity % [1, 11]: 99.9%
Salt form [1, 11]: No change
Purity % [1, 12]: 99.8%
Salt form [1, 12]: No change
Purity % ([1]; Initial): 100.0%
Salt form ([1]; Initial): Crystal form I
Color and state ([2]; 40° C., 5 days, open flask): White solid
Purity % ([2]; 40° C., 5 days, open flask): 99.7%
Salt form ([2]; 40° C., 5 days, open flask): No change
Color and state ([2]; 40° C., 10 days, open flask): White solid
Purity % ([2]; 40° C., 10 days, open flask): 99.6%
Salt form ([2]; 40° C., 10 days, open flask): No change
Color and state ([2]; 40° C., 30 days, open flask): White solid
Purity % ([2]; 40° C., 30 days, open flask): 99.3%
Salt form ([2]; 40° C., 30 days, open flask): No change
Color and state ([2]; 60° C., 5 days, open flask): White solid
Purity % ([2]; 60° C., 5 days, open flask): 99.8%
Salt form ([2]; 60° C., 5 days, open flask): No change
Color and state ([2]; 60° C., 10 days, open flask): White solid
Purity % ([2]; 60° C., 10 days, open flask): 99.7%
Salt form ([2]; 60° C., 10 days, open flask): No change
Color and state ([2]; 60° C., 30 days, open flask): White solid
Purity % ([2]; 60° C., 30 days, open flask): 99.5%
Salt form ([2]; 60° C., 30 days, open flask): No change
Color and state ([2]; 75% RH, 5 days, open flask): White solid
Purity % ([2]; 75% RH, 5 days, open flask): 100.0%
Salt form ([2]; 75% RH, 5 days, open flask): No change
Color and state ([2]; 75% RH, 10 days, open flask): White solid
Purity % ([2]; 75% RH, 10 days, open flask): 99.9%
Salt form ([2]; 75% RH, 10 days, open flask): No change
Color and state ([2]; 75% RH, 30 days, open flask): White solid
Purity % ([2]; 75% RH, 30 days, open flask): 100.0%
Salt form ([2]; 75% RH, 30 days, open flask): No change
Color and state ([2]; 92.5% RH, 5 days, open flask): White solid
Purity % ([2]; 92.5% RH, 5 days, open flask): 99.9%
Salt form ([2]; 92.5% RH, 5 days, open flask): No change
Color and state ([2]; 92.5% RH, 10 days, open flask): White solid
Purity % ([2]; 92.5% RH, 10 days, open flask): 99.9%
Salt form ([2]; 92.5% RH, 10 days, open flask): No change
Color and state ([2]; 92.5% RH, 30 days, open flask): White solid
Purity % ([2]; 92.5% RH, 30 days, open flask): 99.9%
Salt form ([2]; 92.5% RH, 30 days, open flask): No change
Color and state ([2]; Initial, 0 days): White solid
Purity % ([2]; Initial, 0 days): 100.0%
Salt form ([2]; Initial, 0 days): Crystal form I
Color and state [2, 13]: White solid
Purity % [2, 13]: 100.0%
Salt form [2, 13]: No change
Color and state [2, 14]: White solid
Purity % [2, 14]: 99.9%
Salt form [2, 14]: No change
Color and state [2, 15]: White solid
Purity % [2, 15]: 99.5%
Salt form [2, 15]: No change
chemical stability [2, 16]: good
physical stability [2, 16]: good
hygroscopic weight gain under normal storage conditions [3]: about 0.51%
hygroscopic weight gain under accelerated experimental conditions [3]: about 0.60%
hygroscopic weight gain under extreme conditions [3]: about 0.82%
crystal form re-identification after DVS testing [3]: did not change

CCO[C@H]1C[C@H]2CC[C@@](c3ccc(C(=O)O)cc3)(C1)N2Cc1c(OC)cc(C)c2[nH]ccc12.O=P(O)(O)O [crystal form II of the phosphate, 4-((1S,3S,5R)-3-ethoxy-8-((5-methoxy-7-methyl-1H-indol-4-yl)methyl)-8-azabicyclo[3.2.1]octan-1-yl)benzoic acid-phosphate]
Purity % [1, 4]: 99.6%
Purity % [1, 5]: 99.4%
physical stability ([1]; 25° C./60% RH and 40° C./75% RH, 2 months): relatively good
Purity % [1, 9]: 98.7%
Purity % [1, 10]: 97.7%
Purity % ([1]; Initial): 99.9%
long-term chemical stability ([1]; long-term condition, 2 months): good
Color and state ([2]; 40° C., 5 days, open flask): White solid
Salt form ([2]; 40° C., 5 days, open flask): No change
Color and state ([2]; 40° C., 12 days, open flask): White solid
Salt form ([2]; 40° C., 12 days, open flask): No change
Color and state ([2]; 40° C., 30 days, open flask): White solid
Salt form ([2]; 40° C., 30 days, open flask): No change
Color and state ([2]; 60° C., 5 days, open flask): White solid
Salt form ([2]; 60° C., 5 days, open flask): No change
Color and state ([2]; 60° C., 12 days, open flask): White solid
Salt form ([2]; 60° C., 12 days, open flask): No change
Color and state ([2]; 60° C., 30 days, open flask): White solid
Salt form ([2]; 60° C., 30 days, open flask): No change
Color and state ([2]; 75% RH, 5 days, open flask): White solid
Salt form ([2]; 75% RH, 5 days, open flask): No change
Color and state ([2]; 75% RH, 12 days, open flask): White solid
Salt form ([2]; 75% RH, 12 days, open flask): No change
Color and state ([2]; 75% RH, 30 days, open flask): White solid
Salt form ([2]; 75% RH, 30 days, open flask): No change
Color and state ([2]; 92.5% RH, 5 days, open flask): White solid
Salt form ([2]; 92.5% RH, 5 days, open flask): No change
Color and state ([2]; 92.5% RH, 12 days, open flask): White solid
Salt form ([2]; 92.5% RH, 12 days, open flask): Changed
Color and state ([2]; 92.5% RH, 30 days, open flask): White solid
Salt form ([2]; 92.5% RH, 30 days, open flask): Changed
Color and state ([2]; Initial, 0 days): White solid
Salt form ([2]; Initial, 0 days): Crystal form II
Color and state [2, 13]: White solid
Salt form [2, 13]: No change
Color and state [2, 17]: White solid
Salt form [2, 17]: No change
Color and state [2, 15]: White solid
Salt form [2, 15]: No change
chemical stability under high humidity conditions ([2]; high humidity conditions only, 30 days): good
physical stability under high temperature, light exposure, and high humidity (75% RH) conditions ([2]; high temperature, light exposure, high humidity 75% RH only): good

CCO[C@H]1C[C@H]2CC[C@@](c3ccc(C(=O)O)cc3)(C1)N2Cc1c(OC)cc(C)c2[nH]ccc12.Cl [crystal form VI of the hydrochloride, 4-((1S,3S,5R)-3-ethoxy-8-((5-methoxy-7-methyl-1H-indol-4-yl)methyl)-8-azabicyclo[3.2.1]octan-1-yl)benzoic acid-hydrochloride]
hygroscopic weight gain under normal storage conditions [3]: about 3.69%
hygroscopic weight gain under accelerated experimental conditions [3]: about 4.12%
hygroscopic weight gain under extreme conditions [3]: about 5.73%
crystal form re-identification after DVS testing [3]: did not change

CCO[C@H]1C[C@H]2CC[C@@](c3ccc(C(=O)O)cc3)(C1)N2Cc1c(OC)cc(C)c2[nH]ccc12.O=P(O)(O)O [crystal form III of the phosphate, 4-((1S,3S,5R)-3-ethoxy-8-((5-methoxy-7-methyl-1H-indol-4-yl)methyl)-8-azabicyclo[3.2.1]octan-1-yl)benzoic acid-phosphate]
hygroscopic weight gain under normal storage conditions [3]: about 4.7700%
hygroscopic weight gain under accelerated experimental conditions [3]: about 5.440%
hygroscopic weight gain under extreme conditions [3]: about 7.20%
crystal form re-identification after DVS testing [3]: did not change

CCO[C@H]1C[C@H]2CC[C@@](c3ccc(C(=O)O)cc3)(C1)N2Cc1c(OC)cc(C)c2[nH]ccc12.Cl [crystal form V of the hydrochloride, 4-((1S,3S,5R)-3-ethoxy-8-((5-methoxy-7-methyl-1H-indol-4-yl)methyl)-8-azabicyclo[3.2.1]octan-1-yl)benzoic acid-hydrochloride]
hygroscopic weight gain under normal storage conditions [3]: about 6.36%
hygroscopic weight gain under accelerated experimental conditions [3]: about 7.28%
hygroscopic weight gain under extreme conditions [3]: about 8.32%
crystal form re-identification after DVS testing [3]: did not change
